Earlier results as cited in US5476644A, “Cyclic triamine chelating agents” (Sterling Winthrop Inc., priority 1994, dated 1995).

Conditions: background statement; cited from earlier work

[Gd] [free form of Gd, gadolinium]
toxicity of the free form: quite toxic
